Patent US7902240B2, “Substituted pyrazole and triazole compounds as KSP inhibitors” (Novartis AG, priority 2006, dated 2011)
Values joined by “and” are separate entries in the source; they are usually repeats but may differ in a detail not shown here. Equal values may be shown once.

Biological target: T1, motor domain of human KSP (Eg 5, KNSL1) (Homo sapiens, UniProt P52732)
T1 construct: KSP motor protein (i.e., the KSP motor domain); made in house
T1 sequence (P52732 18-359 limits assumed): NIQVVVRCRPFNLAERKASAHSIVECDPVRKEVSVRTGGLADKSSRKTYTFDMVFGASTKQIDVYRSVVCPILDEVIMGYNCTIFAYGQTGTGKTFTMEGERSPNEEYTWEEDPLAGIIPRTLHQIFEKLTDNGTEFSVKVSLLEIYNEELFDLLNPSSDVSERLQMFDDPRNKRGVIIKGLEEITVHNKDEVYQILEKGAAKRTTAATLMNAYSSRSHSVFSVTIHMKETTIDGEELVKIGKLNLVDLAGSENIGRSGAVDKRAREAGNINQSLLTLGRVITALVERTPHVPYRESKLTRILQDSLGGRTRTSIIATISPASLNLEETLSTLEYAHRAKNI
Test: Assay for determining KSP activity (microtubule-stimulated ATPase, Biomol Green)
Type: biochemical
Details: KSP motor domain 45 nM, microtubules 35 μg/mL, ATP, 1 hour RT, absorbance at 630 nm
From the text: This example provides a representative in vitro assay for determining KSP activity in vitro. Purified microtubules obtained from bovine brain were purchased from Cytoskeleton Inc. (Denver, Colo., USA). The motor domain of human KSP (Eg 5, KNSL1) was cloned, expressed, and purified to greater than 95% homogeneity. Biomol Green was purchased from Affinity Research Products Ltd. (Matford Court, Exeter, Devon, United Kingdom). Microtubules and KSP motor protein (i.e., the KSP motor domain) were diluted in assay buffer (20 mM Tris-HCl (pH 7.5), 1 mM MgCl2, 10 mM DTT and 0.25 mg/mL BSA) to a final concentration of 35 μg/mL microtubules and 45 nM KSP. The microtubule/KSP mixture was then pre-incubated at 37° C. for 10 min to promote the binding of KSP to microtubules.
To each well of the testing plate (384-well plate) containing 1.25 μL of inhibitor or test compound in DMSO (or DMSO only in the case of controls) were added 25 μL of ATP solution (ATP diluted to a concentration of 300 μM in assay buffer) and 25 μL of the above-described microtubule/KSP solution. The plates were incubated at RT for 1 hour. Following incubation, 65 μL of Biomol Green (a malachite green-based dye that detects the release of inorganic phosphate) was added to each well. The plates were incubated for an additional 5-10 minutes then the absorbance at 630 nm was determined using a Victor II plate reader. The amount of absorbance at 630 nm corresponded to the amount of KSP activity in the samples. The IC50 of each inhibitor or test compound was then determined based on the decrease in absorbance at 630 nm at each concentration, via nonlinear regression using either XLFit for Excel or Prism data analysis software by GraphPad Software Inc.

Row | IC50 | SMILES
1 | ≤ 100 nM | Cc1cccc(Cn2nc(-c3cc(F)ccc3F)nc2[C@H](N(CC[C@H](N)C(F)F)C(=O)[C@H](C)O)C(C)(C)C)c1 [Compound 79, (S)-N-((S)-3-amino-4,4-difluorobutyl)-N-((R)-1-(3-(2,5-difluorophenyl)-1-(3-methylbenzyl)-1H-1,2,4-triazol-5-yl)-2,2-dimethylpropyl)-2-hydroxypropanamide]
2 | > 1000 nM | CC(C)c1cccc(Cn2nc(-c3cc(F)ccc3F)nc2[C@H](N(CC[C@H](N)C(F)F)C(=O)[C@H](C)O)C(C)(C)C)c1 [Compound 85, (S)-N-((S)-3-amino-4,4-difluorobutyl)-N-((R)-1-(3-(2,5-difluorophenyl)-1-(3-isopropylbenzyl)-1H-1,2,4-triazol-5-yl)-2,2-dimethylpropyl)-2-hydroxypropanamide]
3 | > 100 nM and ≤ 1000 nM | C[C@H](O)C(=O)N(CC[C@@H](N)C(F)F)[C@@H](c1nc(-c2cc(F)ccc2F)nn1Cc1cccc(C#N)c1)C(C)(C)C [Compound 77, (S)-N-((R)-3-amino-4,4-difluorobutyl)-N-((R)-1-(1-(3-cyanobenzyl)-3-(2,5-difluorophenyl)-1H-1,2,4-triazol-5-yl)-2,2-dimethylpropyl)-2-hydroxypropanamide]
4 | > 100 nM and ≤ 1000 nM | C[C@H](O)C(=O)N(CC[C@H](N)C(F)F)[C@@H](c1nc(-c2cc(F)ccc2F)nn1Cc1cccc(C(F)(F)F)c1)C(C)(C)C [Compound 80, (S)-N-((S)-3-amino-4,4-difluorobutyl)-N-((R)-1-(3-(2,5-difluorophenyl)-1-(3-(trifluoromethyl)benzyl)-1H-1,2,4-triazol-5-yl)-2,2-dimethylpropyl)-2-hydroxypropanamide]
5 | > 1000 nM | CC(C)c1cccc(Cn2nc(-c3cc(F)ccc3F)nc2[C@H](N(CC[C@@H](N)C(F)F)C(=O)[C@H](C)O)C(C)(C)C)c1 [Compound 86, (S)-N-((R)-3-amino-4,4-difluorobutyl)-N-((R)-1-(3-(2,5-difluorophenyl)-1-(3-isopropylbenzyl)-1H-1,2,4-triazol-5-yl)-2,2-dimethylpropyl)-2-hydroxypropanamide]
6 | > 100 nM and ≤ 1000 nM | C[C@H](O)C(=O)N(CC[C@@H](N)C(F)F)[C@@H](c1nc(-c2cc(F)ccc2F)nn1Cc1cccc(C(F)(F)F)c1)C(C)(C)C [Compound 78, (S)-N-((R)-3-amino-4,4-difluorobutyl)-N-((R)-1-(3-(2,5-difluorophenyl)-1-(3-(trifluoromethyl)benzyl)-1H-1,2,4-triazol-5-yl)-2,2-dimethylpropyl)-2-hydroxypropanamide]
7 | > 1000 nM | C[C@H](O)C(=O)N(CC[C@H](N)CF)[C@@H](c1nc(-c2cc(Cl)cc(Cl)c2)nn1Cc1ccccc1)C(C)(C)C [Compound 71, (S)-N-((S)-3-amino-4-fluorobutyl)-N-((R)-1-(1-benzyl-3-(3,5-dichlorophenyl)-1H-1,2,4-triazol-5-yl)-2,2-dimethylpropyl)-2-hydroxypropanamide]
